# Results from ChEMBL document CHEMBL1145800, “QSAR and proteo-chemometric analysis of the interaction of a series of organic compounds with melanocortin receptor subtypes” (J Med Chem, 2003).
# Columns and labels:
# [1] = molecular target: Melanocyte-stimulating hormone receptor (Homo sapiens, UniProt Q01726); test: Binding affinity towards Melanocortin 1 receptor, expressed as negative log of the Ki value
# [2] = molecular target: Melanocortin receptor 4 (Homo sapiens, UniProt P32245); test: Binding affinity towards Melanocortin 4 receptor, expressed as negative log of the Ki value
# [3] = molecular target: Melanocortin receptor 3 (Homo sapiens, UniProt P41968); test: Binding affinity towards Melanocortin 3 receptor, expressed as negative log of the Ki value
# [4] = molecular target: Melanocortin receptor 5 (Homo sapiens, UniProt P33032); test: Binding affinity towards Melanocortin 5 receptor, expressed as negative log of the Ki value
# Chain of Melanocortin receptor 5 (P33032 whole entry): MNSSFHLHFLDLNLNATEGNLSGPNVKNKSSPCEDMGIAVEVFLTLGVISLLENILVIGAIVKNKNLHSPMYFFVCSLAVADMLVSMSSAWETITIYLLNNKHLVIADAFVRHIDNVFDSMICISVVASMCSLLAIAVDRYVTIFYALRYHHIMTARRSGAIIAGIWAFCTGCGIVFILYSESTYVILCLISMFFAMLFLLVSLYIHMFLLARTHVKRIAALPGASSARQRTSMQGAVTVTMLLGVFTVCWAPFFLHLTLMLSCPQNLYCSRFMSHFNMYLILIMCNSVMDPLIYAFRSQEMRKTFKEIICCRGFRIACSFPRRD
# Chain of Melanocortin receptor 3 (P41968 whole entry): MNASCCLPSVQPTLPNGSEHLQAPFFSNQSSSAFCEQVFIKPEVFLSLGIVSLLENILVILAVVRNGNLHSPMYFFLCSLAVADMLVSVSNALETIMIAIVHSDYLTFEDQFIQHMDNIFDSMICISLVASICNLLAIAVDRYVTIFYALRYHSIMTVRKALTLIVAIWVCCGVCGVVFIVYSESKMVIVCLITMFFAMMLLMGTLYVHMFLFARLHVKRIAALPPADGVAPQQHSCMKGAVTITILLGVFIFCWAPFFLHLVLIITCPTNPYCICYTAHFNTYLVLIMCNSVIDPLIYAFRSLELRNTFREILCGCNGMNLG
# Chain of Melanocortin receptor 4 (P32245 whole entry): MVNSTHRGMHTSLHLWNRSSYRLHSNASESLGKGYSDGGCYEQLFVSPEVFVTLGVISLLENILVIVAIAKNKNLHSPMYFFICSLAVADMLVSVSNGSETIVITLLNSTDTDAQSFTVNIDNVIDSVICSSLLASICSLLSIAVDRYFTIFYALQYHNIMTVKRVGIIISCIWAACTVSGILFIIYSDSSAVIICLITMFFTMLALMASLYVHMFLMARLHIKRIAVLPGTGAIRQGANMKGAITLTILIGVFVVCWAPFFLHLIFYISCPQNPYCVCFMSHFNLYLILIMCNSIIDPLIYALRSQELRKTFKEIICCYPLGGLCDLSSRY
# Chain of Melanocyte-stimulating hormone receptor (Q01726 whole entry): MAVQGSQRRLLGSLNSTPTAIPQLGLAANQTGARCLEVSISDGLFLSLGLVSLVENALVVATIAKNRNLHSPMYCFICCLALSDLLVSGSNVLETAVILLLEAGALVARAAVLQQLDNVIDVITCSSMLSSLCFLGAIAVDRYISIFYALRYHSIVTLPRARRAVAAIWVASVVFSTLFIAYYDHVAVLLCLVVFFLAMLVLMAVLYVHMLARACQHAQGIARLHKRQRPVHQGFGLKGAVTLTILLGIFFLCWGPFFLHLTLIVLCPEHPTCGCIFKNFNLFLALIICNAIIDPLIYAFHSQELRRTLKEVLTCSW
Ki [1],Ki [2],Ki [3],Ki [4],Structure (SMILES)
0.631 µM,5.01 µM,7.94 µM,–,NC(N)=NCCC[C@H](N)C(=O)N(Cc1ccc2ccccc2c1)Cc1cccc2ccccc12
1.58 µM,2 µM,31.6 µM,3.98 µM,NCCCCCC(=O)N(Cc1ccc2ccccc2c1)Cc1cccc2ccccc12
0.631 µM,25.1 µM,50.1 µM,39.8 µM,NCCCNC(=O)[C@H](CNCc1c[nH]c2ccccc12)NCc1ccc2ccccc2c1
3.98 µM,31.6 µM,5.01 µM,1000 µM,N=C(N)NCCCNC(=O)[C@H](CCCN=C(N)N)NCc1ccc2ccccc2c1
